Test results reported in patent US12274756B2, “Methods of treating and diagnosing epilepsy” (YALE UNIVERSITY, priority 2019, dated 2025).

Test system: Rheb^CA neurons
Assay: Whole cell patch clamp recording in acute slices, Rheb^CA (FCM) neurons
Type: cell-based, mice
Method: Each DNA plasmid was diluted in sterile PBS (pH 7.4) to a final concentration of 1.5-3 μg/μl (specific concentrations below). About 1 μl of DNA solution containing 0.1% fast green was injected into the lateral ventricle of E15.5±0.5 fetuses with a glass pipette. After injection, PBS soaked tweezer-type electrodes (model 520, BTX) were positioned on heads of the fetuses across the uterine wall and 6 square-pulses (42V, 50 ms duration, 950 ms intervals) were applied using a pulse generator (ECM830, BTX), Mice were prescreened for successful electroporation on a fluorescence enabled stereo microscope (SZX16, Olympus) prior to recruitment for EEG monitoring. To generate epilepsy-associated FCM, a DNA solution composed of pCAG-RhebS16H (Rheb^CA, 2 μg/μl) and pCAG-tdTomato (1 μg/μl) was injected in half of all fetuses while pCAG-GFP (3 μg/μl) containing solution was injected in the remaining littermates as controls. To silence FCM neurons, pCAG-Kir2.1-T2A-tdTomato (2 μg/μl)+pCAG-Rheb^CA (2 μg/μl) was injected in half of the fetuses while the remaining half received pCAG-Rheb^CA (2 μg/μl)+pCAG-GFP (2 μg/μl) as controls.
1-5-week-old mice were used for acute slices. Tissue was dissected and sliced in ice cold artificial cerebral spinal fluid (aCSF)oxygenated with 95% O2/5% CO2. The aCSF contained (all in mM): 124 NaCl, 3 KCl, 1.25 NaH2PO4, 1 MgSO4, 26 NaHCO3, 10 Dextrose, 2 CaCl2, 0.4 ascorbate, 4 Na-Lactate, 2 Na-Pyruvate (290±5 mOsm/kg, pH 7.2). Coronal sections (350 μm) were prepared using a vibratome (Vibratome 1000). Sections were incubated in aCSF at 32° C. for 45 minutes before returning to room temperature (25° C.) where they were kept for 8 to 10 hours during experimentation. Fluorescent neurons in the mPFC were visualized using epifluorescence on an Olympus BX51WI microscope with a 40× water immersion objective (Olympus, LUMPlanFL/IR). Whole-cell recordings were performed at 28° C. using pulled glass pipettes ([…]) filled with internal solution (in mM: 110 K-gluconate, 4 KCL, 10 HEPES, 10 di-tris-phosphocreatine, 4 Mg-ATP, 0.3 Na-GTP). Recordings were acquired with an amplifier (Axopatch 200B, Molecular Devices), The resting membrane potential was recorded within the first 10 seconds after achieving whole, cell configuration in current-clamp mode, while the cell is at rest without any holding current. The membrane conductance was calculated using the average membrane potential change from ten hyperpolarizing current injections of −500 pA in current-clamp mode when the cell is at rest. The action potential half width was calculated at half of the peak amplitude of a single action potential induced by current injection. The action potential firing threshold was defined as the membrane potential at which the first derivative of an action potential in current-clamp mode achieves 10% of its peak velocity (dV/dt). The action potential input-output curve was generated by injecting positive current in current-clamp mode from 0 to 2 nA at 100 pA increments for 500 msec.

[1] = Rheb^CA neurons with zatebradine

C=C[C@@]1(C)CC(=O)[C@]2(O)[C@@]3(C)[C@@H](O)CCC(C)(C)[C@@H]3[C@H](O)[C@H](OC(C)=O)[C@@]2(C)O1 [forskolin]
neurons generating repetitive action potentials (Rheb^CA neurons, forskolin bath-application): 4/9

COc1ccc(CCN(C)CCCN2CCc3cc(OC)c(OC)cc3CC2=O)cc1OC [zatebradine]
h current amplitude difference (ΔI) (500 ms-long voltage step, Rheb^CA vs Rheb^CA+zatebradine): significantly reduced
residual inward current at −90 mV [1]: no residual inward current
resting membrane potential (RMP) [1]: shifted RMP of cells to hyperpolarized values similar to those of control neurons
hyperpolarization-induced voltage sag response (Rheb^CA neurons, −500 pA current step, zatebradine 40 μM): eliminated the sag response
HCN currents in Rheb^CA neurons before seizure onset (slices from P8-P12 mice): zatebradine-sensitive
hyperpolarization-activated inward currents (voltage-clamp steps from −40 to −130 mV, in the presence of zatebradine, not fully blocked): significantly reduced
